{"source": "paper PMC11844072", "about": "“Novel 5,6-dichlorobenzimidazole derivatives as dual BRAFWT and BRAFV600E inhibitors: design, synthesis, anti-cancer activity and molecular dynamics simulations” (BMC Chemistry, 2025)", "key": {"[1]": {"system": "HT29 cell line", "assay": "Cell cycle analysis (PI flow cytometry)", "assay_type": "cell-based, human", "method": "7. Analysis of cell cycle distribution\nHT29: Colon Cancer was obtained from Nawah Scientific Inc., (Mokatam, Cairo, Egypt). Cells were maintained in DMEM media supplemented with […] of streptomycin, 100 units/mL of penicillin and 10% of heat-inactivated fetal bovine serum in humidified, 5% (v/v) CO 2 atmosphere at 37 °C. After treatment with test compound 8m for 48h, cells (10^5 cells) are collected by trypsinization and washed twice with ice-cold PBS (pH 7.4). Cells are re-suspended in two milliliters of 60% ice-cold ethanol and incubated at 4 °C for 1h for fixation. Fixed cells are washed twice again with PBS (pH 7.4) and re-suspended in 1 mL of PBS containing 50 μg/mL RNAase A and 10 μg/mL propidium iodide (PI). After 20 min of incubation in dark at 37 °C, cells are analyzed for DNA contents using flow cytometry analysis using FL2 (λex/em 535/617 nm) signal detector (ACEA Novocyte™ flowcytometer, ACEA Biosciences Inc., San Diego, CA, USA). For each sample, 12,000 events are acquired. Cell cycle distribution is calculated using ACEA NovoExpress™ software (ACEA Biosciences Inc., San Diego, CA, USA). […]"}, "[2]": {"system": "HT29 cell line", "assay": "Apoptosis assay (Annexin V-FITC/PI)", "assay_type": "cell-based, human", "method": "As stated in the Additional file A, the populations of apoptotic and necrotic cells of HT29 cell line were detected after treatment with 10h employing Annexin V-FITC apoptosis detection kit (For further details see Additional file A). […]\nHT29: Colon Cancer was obtained from Nawah Scientific Inc., (Mokatam, Cairo, Egypt). […]\nApoptosis and necrosis cell populations are determined using Annexin V-FITC apoptosis detection kit (Abcam Inc., Cambridge Science Park, Cambridge, UK) coupled with 2 fluorescent channels flowcytometry. After treatment with test compounds for 48h, cells (10^5 cells) are collected by trypsinization and washed twice with ice-cold PBS (pH 7.4). Then, cells are incubated in dark with 0.5 ml of Annexin V-FITC/PI solution for 30 min in dark at room temperature according to manufacturer protocol. After staining, cells are injected via ACEA Novocyte™ flowcytometer (ACEA Biosciences Inc., San Diego, CA, USA) and analysed for FITC and PI fluorescent signals using FL1 and FL2 signal detector, respectively (λex/em 488/530 nm for FITC and λex/em 535/617 nm for PI). For each sample, 12,000 events are acquired and positive FITC and/or PI cells are quantified by quadrant analysis and calculated using ACEA NovoExpress™ software (ACEA Biosciences Inc., San Diego, CA,"}, "[3]": {"biological_target": "BRAFV600E (Homo sapiens, UniProt P15056, V600E)", "sequence (P15056 whole entry V600E)": "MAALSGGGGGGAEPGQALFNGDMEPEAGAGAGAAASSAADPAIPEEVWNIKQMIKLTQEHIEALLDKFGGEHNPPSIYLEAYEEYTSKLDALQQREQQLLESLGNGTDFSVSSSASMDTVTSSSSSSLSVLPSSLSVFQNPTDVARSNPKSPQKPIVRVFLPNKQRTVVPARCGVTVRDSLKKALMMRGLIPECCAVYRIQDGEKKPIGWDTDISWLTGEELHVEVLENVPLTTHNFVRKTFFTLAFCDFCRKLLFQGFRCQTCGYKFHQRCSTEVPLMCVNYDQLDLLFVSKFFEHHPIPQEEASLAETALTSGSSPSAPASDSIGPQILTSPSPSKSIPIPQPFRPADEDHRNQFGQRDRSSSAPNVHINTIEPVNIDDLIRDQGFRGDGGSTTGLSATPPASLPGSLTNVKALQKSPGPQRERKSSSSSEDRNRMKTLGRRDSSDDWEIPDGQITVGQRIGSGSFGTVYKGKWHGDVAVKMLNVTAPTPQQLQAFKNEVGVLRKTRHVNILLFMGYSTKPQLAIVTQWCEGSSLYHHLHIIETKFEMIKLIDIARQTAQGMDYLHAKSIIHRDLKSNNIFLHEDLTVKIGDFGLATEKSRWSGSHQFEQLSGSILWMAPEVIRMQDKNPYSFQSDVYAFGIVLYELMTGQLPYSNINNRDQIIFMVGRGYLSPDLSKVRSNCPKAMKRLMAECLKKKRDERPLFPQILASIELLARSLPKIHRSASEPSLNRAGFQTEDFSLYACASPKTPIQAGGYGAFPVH", "assay": "BRAFV600E kinase assay kit (Kinase-Glo Max luminescence)", "procedure": "The inhibitory activity against different kinases was determined using kinase kits (BRAF WT\nGlo Max luminescence kinase assay kit (Promega).\nThe assay was carried out according to the protocol provided by the manufacturer. A stock solution of the synthesized derivatives in 100% DMSO was prepared. Subsequently, the compounds were diluted to 10% DMSO.\nA master mixture was prepared according to the number of wells. For BRAF assay each well include 6 μl of 5x Kinase Buffer 1 + 1 μl of ATP (500 μM) + 10 μl of 5X Raf substrate + 8 μl of distilled water. 1x Kinase buffer 1 was prepared by mixing 600 μl of 5x Kinase Buffer 1 with 2400 μl water to give 3 mL. Kinases were thawed on ice and were diluted with 1x Kinase Buffer 1. […]\nThe plate was incubated at 30 °C for 45 min. Subsequently, 50 μl of Kinase-Glo Max luminescence reagent was added to each well and the plate was covered with aluminum foil and incubated at room temperature for 15 min. Finally, the luminescence was recorded using multimode microplate reader. […]\nThe luminescence data were analyzed as follows. The difference between luminescence intensities in the absence of kinase (Lu t) and in the presence of kinase (Lu c) was defined as 100 %\ncalculated as: % activity = {(Lu t - Lu)/(Lut - Luc)} ×100%. The concentration of the test compounds required to reduce the kinase activity by 50% was determined from dose-response curves and"}, "[4]": {"details": "HT29, 10h at its GI50 concentration, 48h"}, "[5]": {"details": "HT29, at its GI50 concentration, 48h"}}}
{"compound": "COC(=O)COc1ccc(C=NNC(=O)Cn2c(-c3ccc(OC)cc3)nc3cc(Cl)c(Cl)cc32)cc1", "note": "[Compound 10h, Methyl-2-(4-((2-(2-(5,6-dichloro-2-(4-methoxyphenyl)-1H-benzo[d]imidazol-1-yl)acetyl)hydrazono)methyl)phenoxy)acetate]", "values": [{"measurement": "%G0/G1", "setting": "[1]; [4]", "result": 62.69, "unit": "%"}, {"measurement": "%G2/M", "setting": "[1]; [4]", "result": 19.26, "unit": "%"}, {"measurement": "%S", "setting": "[1]; [4]", "result": 18.04, "unit": "%"}, {"measurement": "%Sub-G1", "setting": "[1]; [4]", "result": 10.45, "unit": "%"}, {"measurement": "effect on cell cycle progression", "setting": "[1]; HT29 colon cancer cell line", "result": "arrested cell cycle progression in HT29 colon cancer cell line at G2/M phase"}, {"measurement": "% of cells in early apoptosis (Q2-4)", "setting": "[2]; [5]", "result": 2.29, "unit": "%"}, {"measurement": "% of cells in late apoptosis (Q2-2)", "setting": "[2]; [5]", "result": 17.56, "unit": "%"}, {"measurement": "% of necrotic cells (Q2-1)", "setting": "[2]; [5]", "result": 3.44, "unit": "%"}, {"measurement": "% of viable cells (Q2-3)", "setting": "[2]; [5]", "result": 76.71, "unit": "%"}, {"measurement": "total % of the cells in the apoptotic phases (Early and late)", "setting": "[2]; [5]", "result": 19.85, "unit": "%"}, {"measurement": "apoptosis induction", "setting": "[2]; HT29 colon cancer cell line", "result": "induced apoptosis"}, {"measurement": "IC50", "setting": "[3]", "result": "2760 ± 150", "unit": "nM"}]}
